Measured values taken from patent publication US5891924A, “Curcumin (diferuloylmethane) inhibition of NFκB activation” (Research Development Foundation, priority 1996, dated 1999).

Legend:
p65 subunit of NF-κB = assay: Western blot for p65 level in cytoplasm and nucleus of TNF-treated ML-1a cells; assay type: cell-based, human
IκBα = assay: Western blot for TNF-induced phosphorylation and degradation of IκBα in ML-1a cells; assay type: cell-based, human; conditions: curcumin 50 μM 60 minutes pretreatment, TNF 0.1 nM different times, cytosolic fraction, FIG. 6A
Experimental: ML-1a (2×10^6 /ml) pretreated (for 60 minutes at 37° C.) with or without curcumin (50 μM) were incubated for different times with TNF (0.1 nM), and then assayed for IκBα (FIG. 6A) and for p65 (FIG. 6B) in cytosolic fractions by western blot analysis as described below. ML-1a (2×10^6 /ml) pretreated (for 60 minutes at 37° C.) with curcumin were incubated with TNF (0.1 nM) for 30 minutes. Nuclear and cytoplasmic extracts were assayed by western blot analysis for p65. The arbitrary units represent the relative amounts of the respective proteins as described below.
After the NF-κB activation reaction described above, postnuclear extracts were resolved on 10% SDS-polyacrylamide gels for IκBα. To determine p65 levels, nuclear and post nuclear (cytoplasmic) extracts were resolved on 8% SDS-polyacrylamide gels. After the gels, the proteins were electrotransferred to nitrocellulose filters, probed with a rabbit polyclonal antibody against IκBa or against p65, and detected by chemiluminescence (ECL-Amersham) (22). The bands obtained were quantitated using Personal Densitometer Scan v1.30 using Image Quanta software version 3.3 (Molecular Dynamics, Sunnyvale, Calif.).
The translocation of NF-κB to the nucleus is preceded by the phosphorylation and proteolytic degradation of IκBα (26). […]

NF-κB [1] = assay: Effect of reducing agents DTT and DMP on inhibition of TNF-induced NF-κB activation, EMSA; assay type: cell-based, human; conditions: DTT 100 μM or DMP 100 μM, curcumin 50 μM or PAO 2.4 μM, 60 minutes, then 0.1 nM TNF 30 minutes, FIG. 5
NF-κB [2] = assay: TNF-dependent NF-κB activation by electrophoretic mobility shift assay in ML-1a cells; assay type: cell-based, human
NF-κB [3] = assay: PMA- and H2O2-mediated activation of NF-κB in ML-1a cells, EMSA; assay type: cell-based, human; conditions: curcumin 50 μM 60 minutes preincubation, FIG. 3
NF-κB [4] = assay: Binding of NF-κB to DNA, nuclear extracts from TNF-pre-activated cells incubated with curcumin, EMSA; parameters: species or system human; conditions: nuclear extracts from TNF-pre-activated cells incubated with curcumin 15 minutes, FIG. 2b
AP-1 = assay: EMSA of AP-1 transcription factor in curcumin-treated cells; assay type: cell-based, human; conditions: cells treated with different concentrations of curcumin 60 minutes at 37° C., FIG. 4
Sp1 = assay: EMSA of Sp1 transcription factor in curcumin-treated cells; assay type: cell-based, human; conditions: cells treated with different concentrations of curcumin 60 minutes at 37° C., FIG. 4

COc1cc(/C=C/C(=O)CC(=O)/C=C/c2ccc(O)c(OC)c2)ccc1O [curcumin, diferuloylmethane]
effect on TNF-dependent change in nuclear and cytoplasmic p65 levels (translocation of p65 to the nucleus) (p65 subunit of NF-κB; curcumin 50 μM 60 minutes pretreatment, TNF 0.1 nM, FIGS. 6B and 6C): abolished
down-modulation of the cytoplasmic pool of p65 subunit of NF-κB (p65 subunit of NF-κB; curcumin-treated ML-1a cells, western blot): not down-modulated
effect on TNF-induced phosphorylation and degradation of IκBα (IκBα): abolished
reversal by DTT and DMP of the inhibition of TNF-induced NF-κB activation (NF-κB [1]): did not reverse
inhibition of TNF response, pretreatment with curcumin (NF-κB [2]; 20 μM curcumin 60, 30 and 10 minutes prior to TNF 0.1 nM, TNF 30 minutes, FIG. 1b): inhibited only when cells were pretreated
inhibition of TNF response, cotreatment of cells with TNF and curcumin (NF-κB [2]; 20 μM curcumin added at the same time as TNF 0.1 nM, TNF 30 minutes, FIG. 1b): not effective
inhibition of NF-κB activation induced by 10 nM TNF (NF-κB [2]; 50 μM curcumin 60 minutes pretreatment, 10 nM TNF for different times, FIG. 1c): completely inhibit
activation of NF-κB by the compound by itself (NF-κB [2]; ML-1a cells, without TNF, EMSA): did not activate
inhibition of hydrogen peroxide-induced activation of NF-κB (NF-κB [3]; H2O2 0.5 mM 30 minutes): completely blocked
inhibition of PMA-induced activation of NF-κB (NF-κB [3]; PMA 25 ng/ml 30 minutes): completely blocked
effect on the ability of NF-κB to bind to the DNA (NF-κB [4]): did not modify
effect on DNA binding of AP-1 transcription factors (AP-1): down-modulated
effect on the Sp1 transcription factor (Sp1): no effect
